According to patent US12534496B2, “Polymorphic forms of Cyclo (-His-Pro) and methods of use to treat kidney disease” (NovMetaPharma Co., Ltd., priority 2018, dated 2026):
“Also recorded” adds a separate entry of the source. Each block holds one molecule with its values, some of them ahead of it.

Assays:
Format in all cases: physicochemical
[1] = Solvent solubility screen of CHP lyophile
Protocol: To a known mass of CHP lyophile (10 mg, from Section 5.2.2), 100 μL of the appropriate solvent was added and if solid remained the vial was gently heated to ˜40° C. to aid dissolution. Solvent addition continued until the material fully dissolved or 2 mL had been added (<5 mg/mL). The samples were uncapped and allowed to evaporate at ambient. The solvents used in the solubility screen can be found in Table 21.

[2] = Competitive slurry of Pattern 1 and Pattern 2 in EtOH/water/MtBE (form stability, XRPD)
Protocol: In order to study form stability in EtOH/water/MtBE, competitive repining experiments were carried out at 50° C., 35° C., and 5° C. respectively, by adding 100 mg of anhydrous Pattern 1 solid and 100 mg of Pattern 2 solid.

[3] = 1 day stability assessment at 40 °C/75% RH (XRPD); settings: 2 hours at 40 °C/75% RH
[4] = 8-week stability assessment at 40 °C/75% RH (XRPD, appearance, chiral HPLC); settings: for Chiral Purity: chiral HPLC
Protocol: XRPD analysis was carried out on a PANalytical X'pert pro, scanning the samples between 3 and 35° 2θ. The material was gently ground to release any agglomerates and loaded onto a multi-well plate with Kapton or Mylar polymer film to support the sample. The multi-well plate was then placed into the diffractometer and analyzed using Cu K radiation (α1λ=1.54060 Å; α2=1.54443 Å; β=1.39225 Å; α1: α2 ratio=0.5) running in transmission mode (step size 0.0130° 2θ) using 40 kV/40 mA generator settings.
13. Chiral HPLC Column: Daicel IC (5.0 um, 250*4.6 mm) Column Temperature: 30° C. Injection Volume: 5 μL Flow Rate: 1.0 mL/min Mobile Phase A: 0.01% DEA in n-Hexane Mobile Phase B: EtOH:MeOH=2:8 (v/v) Diluent: Acetonitrile PDA Range: 220 nm Gradient program: […]

- Approximate Solubility ([1]; 1-Butanol): ≥5000 µg/mL
- Approximate Solubility ([1]; 2-Butanol): ≥5000 µg/mL
- Approximate Solubility ([1]; Dichloromethane): ≤5000 µg/mL
- Approximate Solubility ([1]; Ethyl Acetate): ≤5000 µg/mL
- Approximate Solubility ([1]; Ethyl Formate): ≤5000 µg/mL
- Approximate Solubility ([1]; Heptane): ≤5000 µg/mL
- Approximate Solubility ([1]; Isopropyl Acetate): ≤5000 µg/mL
- Approximate Solubility ([1]; Methylethyl Ketone): ≤5000 µg/mL
- Approximate Solubility ([1]; Methylisobutyl Ketone): ≤5000 µg/mL
- Approximate Solubility ([1]; Nitromethane): ≤5000 µg/mL
- Approximate Solubility ([1]; THF): ≤5000 µg/mL
- Approximate Solubility ([1]; acetone): ≤5000 µg/mL
- Approximate Solubility ([1]; acetonitrile): ≤5000 µg/mL
- Approximate Solubility ([1]; tert-Butylmethyl Ether): ≤5000 µg/mL
Structure (SMILES): O=C1N[C@@H](Cc2cnc[nH]2)C(=O)N2CCC[C@@H]12 [CHP Lyophile, Cyclo (-His-Pro)]

- XRPD tracking ([2]; (EtOH:H2O = 9:1):MTBE = 1:2, 5 °C, 0 h): Pattern 2
- XRPD tracking ([2]; (EtOH:H2O = 9:1):MTBE = 1:2, 5 °C, 2 h): Pattern 2
- XRPD tracking ([2]; (EtOH:H2O = 9:1):MTBE = 1:2, 5 °C, 6 d): Pattern 2
- XRPD tracking ([2]; (EtOH:H2O = 9:1):MTBE = 1:2, 5 °C, 7 d): Pattern 2
- XRPD tracking ([2]; (EtOH:H2O = 9:1):MTBE = 1:2, 35 °C, 0 h): Pattern 2
- XRPD tracking ([2]; (EtOH:H2O = 9:1):MTBE = 1:2, 35 °C, 2 h): Pattern 2
- XRPD tracking ([2]; (EtOH:H2O = 9:1):MTBE = 1:2, 50 °C, 0 h): Pattern 2
- XRPD tracking ([2]; (EtOH:H2O = 9:1):MTBE = 1:2, 50 °C, 2 h): Pattern 2
- XRPD tracking ([2]; (EtOH:H2O = 9:1):MTBE = 1:3, 5 °C, 0 h): Pattern 2
- XRPD tracking ([2]; (EtOH:H2O = 9:1):MTBE = 1:3, 5 °C, 2 h): Pattern 2
- XRPD tracking ([2]; (EtOH:H2O = 9:1):MTBE = 1:3, 5 °C, 6 d): Pattern 2
- XRPD tracking ([2]; (EtOH:H2O = 9:1):MTBE = 1:3, 5 °C, 7 d): Pattern 2
- XRPD tracking ([2]; (EtOH:H2O = 9:1):MTBE = 1:3, 35 °C, 0 h): Pattern 2
- XRPD tracking ([2]; (EtOH:H2O = 9:1):MTBE = 1:3, 35 °C, 2 h): Pattern 2
- XRPD tracking ([2]; (EtOH:H2O = 9:1):MTBE = 1:3, 35 °C, 6 d): Pattern 2
- XRPD tracking ([2]; (EtOH:H2O = 9:1):MTBE = 1:3, 35 °C, 7 d): Pattern 2
- XRPD tracking ([2]; (EtOH:H2O = 9:1):MTBE = 1:3, 50 °C, 0 h): Pattern 2
- XRPD tracking ([2]; (EtOH:H2O = 9:1):MTBE = 1:3, 50 °C, 2 h): Pattern 2
- XRPD tracking ([2]; (EtOH:H2O = 9:1):MTBE = 1:3, 50 °C, 6 d): Pattern 2
- XRPD tracking ([2]; (EtOH:H2O = 9:1):MTBE = 1:3, 50 °C, 7 d): Pattern 2
- XRPD tracking ([2]; (EtOH:H2O = 9:1):MTBE = 2.5:0.5, 5 °C, 0 h): Pattern 2
- XRPD tracking ([2]; (EtOH:H2O = 9:1):MTBE = 2.5:0.5, 5 °C, 2 h): Pattern 2
- XRPD tracking ([2]; (EtOH:H2O = 9:1):MTBE = 2.5:0.5, 5 °C, 6 d): Pattern 2
- XRPD tracking ([2]; (EtOH:H2O = 9:1):MTBE = 2.5:0.5, 5 °C, 7 d): Pattern 2
- XRPD tracking ([2]; (EtOH:H2O = 9:1):MTBE = 2.5:0.5, 35 °C, 0 h): Pattern 2
- XRPD tracking ([2]; (EtOH:H2O = 9:1):MTBE = 2.5:0.5, 35 °C, 2 h): Pattern 2
- XRPD tracking ([2]; (EtOH:H2O = 9:1):MTBE = 2.5:0.5, 35 °C, 6 d): Pattern 2
- XRPD tracking ([2]; (EtOH:H2O = 9:1):MTBE = 2.5:0.5, 35 °C, 7 d): Pattern 2
- XRPD tracking ([2]; (EtOH:H2O = 9:1):MTBE = 2.5:0.5, 50 °C, 0 h): Pattern 2
- XRPD tracking ([2]; (EtOH:H2O = 9:1):MTBE = 2.5:0.5, 50 °C, 2 h): Pattern 2
- XRPD tracking ([2]; (EtOH:H2O = 9:1):MTBE = 2.5:0.5, 50 °C, 6 d): Pattern 2
- XRPD tracking ([2]; (EtOH:H2O = 9:1):MTBE = 3:0, 5 °C, 0 h): Pattern 2
- XRPD tracking ([2]; (EtOH:H2O = 9:1):MTBE = 3:0, 5 °C, 2 h): Pattern 2
- XRPD tracking ([2]; (EtOH:H2O = 9:1):MTBE = 3:0, 5 °C, 6 d): Pattern 2
- XRPD tracking ([2]; (EtOH:H2O = 9:1):MTBE = 3:0, 5 °C, 7 d): Pattern 2
- XRPD tracking ([2]; (EtOH:H2O = 9:1):MTBE = 3:0, 35 °C, 0 h): Pattern 2
- XRPD tracking ([2]; (EtOH:H2O = 9:1):MTBE = 3:0, 35 °C, 2 h): Pattern 2
- XRPD tracking ([2]; (EtOH:H2O = 9:1):MTBE = 3:0, 35 °C, 6 d): Pattern 2
- XRPD tracking ([2]; (EtOH:H2O = 9:1):MTBE = 3:0, 35 °C, 7 d): Pattern 2
- XRPD tracking ([2]; (EtOH:H2O = 9:1):MTBE = 3:0, 50 °C, 0 h): Pattern 2
Structure (SMILES): O=C1N[C@@H](Cc2c[nH]cn2)C(=O)N2CCC[C@@H]12 [Pattern 1 and Pattern 2]

- XRPD form after storage ([3]; listed as Pure pattern 1): convert to pattern 2
- XRPD form after storage ([3]; listed as pure pattern 1): converts to pattern 2
- Appearance ([4]; 2-week): Faint beige
- Appearance ([4]; 4-week): Faint beige
- XRPD form after storage ([4]; 4 weeks): remained as pattern 2
- Appearance ([4]; 8-week): Faint beige
- XRPD form after storage ([4]; 8 weeks): remained as pattern 2
- Appearance ([4]; Initial): Faint beige
- Chiral Purity ([4]; 2-week): 99.9%
- Chiral Purity ([4]; 4-week): 99.9%
- Chiral Purity ([4]; 8-week): 99.9%
- Chiral Purity ([4]; Initial): >99.9%
Structure (SMILES): O=C1N[C@@H](Cc2cnc[nH]2)C(=O)N2CCC[C@@H]12 [Pure Pattern 1, Cyclo (-His-Pro)]
- XRPD form after storage ([4]; two weeks (14 days)): converted to pattern 2; also recorded: converting to the hydrated pattern 2
